Assay results: PubChem BioAssay AID328 (DTP/NCI, 2004)
Inconclusive results and toxic doses are left out.

Tested on: BDF1 mice, P388 leukemia ip, median survival T/C
Assay: NCI In Vivo Anticancer Drug Screen. Data for tumor model P388 Leukemia (intraperitoneal) in B6D2F1 (BDF1) mice
Details: endpoint: median survival time, higher = longer survival
Method in brief: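 Survival ratio, drug arm over vehicle arm, in mice with a transplanted tumour.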

[1] = dose: 100.0 mg/kg/injection, schedule: Q04DX003 (ip), vehicle: Klucel (hydroxypropylcellulose) (HPC)
[2] = dose: 200.0 mg/kg/injection, schedule: Q04DX003 (ip), vehicle: Klucel (hydroxypropylcellulose) (HPC)
[3] = dose: 400.0 mg/kg/injection, schedule: Q04DX003 (ip), vehicle: Klucel (hydroxypropylcellulose) (HPC)
[4] = dose: 6.25 mg/kg/injection, schedule: Q01DX009 (ip), vehicle: Klucel (hydroxypropylcellulose) (HPC)
[5] = dose: 12.5 mg/kg/injection, schedule: Q01DX009 (ip), vehicle: Klucel (hydroxypropylcellulose) (HPC)
[6] = dose: 25.0 mg/kg/injection, schedule: Q01DX009 (ip), vehicle: Klucel (hydroxypropylcellulose) (HPC)
[7] = dose: 100.0 mg/kg/injection, schedule: Q01DX009 (ip), vehicle: Klucel (hydroxypropylcellulose) (HPC)
[8] = dose: 200.0 mg/kg/injection, schedule: Q01DX009 (ip), vehicle: Klucel (hydroxypropylcellulose) (HPC)
[9] = dose: 400.0 mg/kg/injection, schedule: Q01DX009 (ip), vehicle: Klucel (hydroxypropylcellulose) (HPC)

CN=C(N)NCCCCCCCCNC(N)=NC
T/C (dose: 6.25 mg/kg/injection, schedule: Q01DX009 (ip), vehicle: saline): 110 % of control | T/C (dose: 12.5 mg/kg/injection, schedule: Q01DX009 (ip), vehicle: saline): 122 % of control

N/C(=N\OC(=O)NC(Cl)=C(Cl)Cl)c1ccc(Cl)cc1
T/C (dose: 50.0 mg/kg/injection, schedule: Q01DX005 (ip), vehicle: saline with Tween-80): 92 % of control | T/C (dose: 100.0 mg/kg/injection, schedule: Q01DX005 (ip), vehicle: saline with Tween-80): 114 % of control

CN(C)c1ccc(Cc2ccc(N(C)C)cc2[N+](=O)[O-])cc1
T/C [1]: 100 % of control | T/C [2]: 95 % of control | T/C [3]: 104 % of control

N#Cc1ccccc1-n1c(=O)c2cc3c(=O)n(-c4ccccc4C#N)c(=O)c3cc2c1=O
T/C (dose: 200.0 mg/kg/injection, schedule: Q01DX009 (ip), vehicle: saline with Tween-80): 162 % of control

CCC(CO)NC(=O)Nc1cccc2ccccc12 (stereo not drawn)
T/C (dose: 100.0 mg/kg/injection, schedule: Q01DX001 (ip), vehicle: saline with Tween-80): 109 % of control | T/C (dose: 200.0 mg/kg/injection, schedule: Q01DX001 (ip), vehicle: saline with Tween-80): 100 % of control | T/C (dose: 400.0 mg/kg/injection, schedule: Q01DX001 (ip), vehicle: saline with Tween-80): 109 % of control

CC12CCC3C4CCC(=O)C(O)=C4CCC3C1CCC2OC(=O)CCC1CCCC1 (stereo not drawn)
T/C (dose: 100.0 mg/kg/injection, schedule: Q04DX003 (sc), vehicle: steriod suspending solution): 86 % of control | T/C (dose: 400.0 mg/kg/injection, schedule: Q04DX003 (sc), vehicle: steriod suspending solution): 95 % of control

BrC1C(Br)C(Br)C2OC2C1Br (stereo not drawn)
T/C [1]: 100 % of control | T/C [2]: 105 % of control | T/C [3]: 100 % of control

O=C(O)CCSSc1ccc([N+](=O)[O-])cc1[N+](=O)[O-]
T/C [4]: 95 % of control | T/C (dose: 6.25 mg/kg/injection, schedule: Q04DX003 (ip), vehicle: Klucel (hydroxypropylcellulose) (HPC)): 100 % of control | T/C [5]: 100 % of control | T/C (dose: 12.5 mg/kg/injection, schedule: Q04DX003 (ip), vehicle: Klucel (hydroxypropylcellulose) (HPC)): 109 % of control | T/C [6]: 104 % of control | T/C (dose: 25.0 mg/kg/injection, schedule: Q04DX003 (ip), vehicle: Klucel (hydroxypropylcellulose) (HPC)): 109 % of control

CC1(C)OC(=O)C(=Cc2c(Cl)cccc2Cl)C(=O)O1
T/C (dose: 100.0 mg/kg/injection, schedule: Q01DX001 (ip), vehicle: Klucel (hydroxypropylcellulose) (HPC)): 109 % of control | T/C [7]: 87 % of control | T/C (dose: 200.0 mg/kg/injection, schedule: Q01DX001 (ip), vehicle: Klucel (hydroxypropylcellulose) (HPC)): 104 % of control | T/C [8]: 104 % of control | T/C (dose: 400.0 mg/kg/injection, schedule: Q01DX001 (ip), vehicle: Klucel (hydroxypropylcellulose) (HPC)): 109 % of control | T/C [9]: 100 % of control

CCN(CC)CCOC(=O)C(c1ccccc1)C1(O)CCCC(C)C1 (stereo not drawn)
T/C (dose: 50.0 mg/kg/injection, schedule: Q01DX005 (ip), vehicle: saline): 98 % of control | T/C (dose: 100.0 mg/kg/injection, schedule: Q01DX005 (ip), vehicle: saline): 90 % of control | T/C (dose: 200.0 mg/kg/injection, schedule: Q01DX005 (ip), vehicle: saline): 110 % of control

O=S(=O)(N=C1C(Cl)=C(Cl)C(=NS(=O)(=O)c2ccccc2)C(Cl)=C1Cl)c1ccccc1
T/C [7]: 104 % of control | T/C [1]: 100 % of control | T/C [8]: 86 % of control | T/C [2]: 100 % of control | T/C [9]: 100 % of control | T/C [3]: 100 % of control

CCC(C)SC1=NC=NC2=NC=NC21 (stereo not drawn)
T/C (dose: 50.0 mg/kg/injection, schedule: Q01DX009 (ip), vehicle: saline with Tween-80): 100 % of control | T/C (dose: 100.0 mg/kg/injection, schedule: Q01DX009 (ip), vehicle: saline with Tween-80): 96 % of control | T/C (dose: 100.0 mg/kg/injection, schedule: Q04DX003 (ip), vehicle: saline with Tween-80): 91 % of control | T/C (dose: 200.0 mg/kg/injection, schedule: Q04DX003 (ip), vehicle: saline with Tween-80): 100 % of control

O=C(C=C(C(F)(F)F)C(F)(F)F)c1ccc(F)cc1
T/C [4]: 101 % of control | T/C (dose: 6.25 mg/kg/injection, schedule: Q01DX009 (ip), vehicle: other): 100 % of control | T/C [5]: 105 % of control | T/C (dose: 12.5 mg/kg/injection, schedule: Q01DX009 (ip), vehicle: other): 109 % of control | T/C (dose: 16.5 mg/kg/injection, schedule: Q01DX009 (ip), vehicle: other): 113 % of control | T/C [6]: 118 % of control | T/C (dose: 25.0 mg/kg/injection, schedule: Q01DX009 (ip), vehicle: other): 118 % of control
